Key:
[1] = British Pharmacopoeia; cited from earlier work
[2] = Dispersion experiments in multi-stage liquid impinger (MSLI), fine particle fraction; assay type: physicochemical; details: beaker-synthesised powder, 60 L/min, 4 seconds
From the text: The measurement of particle sizes in vitro allows a simplistic estimation of the aerodynamic particle size distribution. This process utilizes cascade or impactor devices such as the multi-stage liquid impinger (MSLI) (FIG. 7) to provide a breakdown of the particle size distribution through separation and collection of powder of different Da.
The MSLI consists of 5 stages which have been calibrated at 60 L/min to collect powder of a certain Da, known as the cut-off Da:
At flow rates of 60-100 L/min, the particles which have a Da of less than 5 μm are expected to be able to surpass oropharangeal deposition and the filter of the MSLI from equation 3. From the results of the MSLI, the FPF (fine particle fraction) can be calculated, and expressed as two different forms: […]
The recovery was also calculated for each dispersion which represents the mass of powder which was accounted for compared with the mass which was loaded into the capsules (Equation 6).
The equipment used to perform the dispersion experiments was the MSLI, which has been described earlier. […] The supernatant was then collected. • Step 11: All rinsings were collected into separately labeled glass vials and analyzed by UV immediately to minimize the effect of evaporation, which would produce an overestimation of the concentration collected.

[3] = assay type: physicochemical
From the text: The aim of this experiment was to achieve a suspension containing fine Salbutamol sulfate precipitate. […] Alcohol (ethanol) therefore was considered to be the best choice, considering the safety of the possible solvents. The solubility of a solid is a function of the solid particle size according to Equation 1
where R is the gas constant, T the absolute temperature, S and Sr the solubility of large solid particles and of particles having small radius r respectively, and M, σ, and d are the molecular weight, surface tension, and density of the solid respectively. It will be appreciated from Eq. 1 that the solubility of a solid will increase as the particle size decreases. […] Consequently, when one considers the yield of the process, alcohol no longer appears suitable. […] Further, IPA is a commonly used organic solvent.

reduction in FPF(emitted), Rotahaler vs Aeroliser [2] [%] | reduction in FPF(total), Rotahaler vs Aeroliser [2] [%] | solubility in IPA [3] | Compound | solubility in alcohol [1] | solubility in ether [1] | solubility in water [1] | solubility in methylene chloride [1]
 |  |  | CC(C)(C)NCC(O)c1ccc(O)c(CO)c1 (stereo not shown) [Salbutamol base] | soluble | slightly soluble | sparingly soluble | 
~30 | ~20 | somewhat lower than in alcohol | Salbutamol sulfate | slightly soluble | slightly soluble | freely soluble | very slightly soluble
